Data taken from US20220088016A1, “CANCER TREATMENT USING MULTI-TARGETED KINASE INHIBITOR IN COMBINATION OF PROTEIN KINASE BIOMARKERS” (ZHEJIANG CROWNMAB BIOTECH CO. LTD., priority 2019, published 2022).

Assays:
JNK1 = JNK1 (Homo sapiens, UniProt P45983); assay: Kinase profiling; type: binding; details: read-out: % Ctrl @ 1000 nM
PRKCD = PRKCD (Homo sapiens, UniProt Q05655); assay: Kinase profiling; type: binding; details: read-out: % Ctrl @ 1000 nM
[1] = biological target: RSK1 (Kin.Dom.1-N-terminal) (Homo sapiens, UniProt Q15418); assay: Kinase profiling; type: binding; details: read-out: % Ctrl @ 1000 nM
PIP5K1A = PIP5K1A (Homo sapiens, UniProt Q99755); assay: Kinase profiling; type: binding; details: read-out: % Ctrl @ 1000 nM
EGFR (S752-I759del) = EGFR (S752-I759del) (Homo sapiens, UniProt P00533, DEL752-759); assay: Kinase profiling; type: binding; details: read-out: % Ctrl @ 1000 nM
LOK = LOK (Homo sapiens, UniProt O94804); assay: Kinase profiling; type: binding; details: read-out: % Ctrl @ 1000 nM
MAST1 = biological target: T1, MAST1 (Homo sapiens, UniProt Q9Y2H9); assay: Kinase profiling; type: binding; details: read-out: % Ctrl @ 1000 nM
T1 construct: T7 phage fusion (stated for most kinases of the panel only); made in house; host or cells: T7 phage in E. coli (BL21-derived) or HEK-293 cells

[2] = biological target: ABL1 (Q252H)-phosphorylated (Homo sapiens, UniProt P00519, Q252H); assay: Kinase profiling; type: binding; details: read-out: % Ctrl @ 1000 nM
MST1 = biological target: T2, MST1 (Homo sapiens, UniProt Q13043); assay: Kinase profiling; type: binding; details: read-out: % Ctrl @ 1000 nM
T2 construct: T7 phage fusion (stated for most kinases of the panel only); made in house; host or cells: T7 phage in E. coli (BL21-derived) or HEK-293 cells
T2 sequence (Q13043 whole entry, the tested form may be a part): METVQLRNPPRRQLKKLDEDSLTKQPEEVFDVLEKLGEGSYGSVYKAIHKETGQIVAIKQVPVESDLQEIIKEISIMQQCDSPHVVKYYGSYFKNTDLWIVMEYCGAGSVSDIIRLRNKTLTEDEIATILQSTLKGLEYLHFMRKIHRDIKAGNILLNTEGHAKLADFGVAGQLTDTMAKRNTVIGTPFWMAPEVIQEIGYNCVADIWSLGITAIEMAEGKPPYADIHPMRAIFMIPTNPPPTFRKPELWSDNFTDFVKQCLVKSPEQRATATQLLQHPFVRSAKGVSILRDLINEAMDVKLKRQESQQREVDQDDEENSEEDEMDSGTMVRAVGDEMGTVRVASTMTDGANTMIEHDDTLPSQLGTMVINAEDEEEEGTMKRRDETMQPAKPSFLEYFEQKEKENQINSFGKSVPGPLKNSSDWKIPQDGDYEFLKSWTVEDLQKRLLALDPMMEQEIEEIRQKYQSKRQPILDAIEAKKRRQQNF

EPHB6 = EPHB6 (Homo sapiens, UniProt O15197); assay: Kinase profiling; type: binding; details: read-out: % Ctrl @ 1000 nM
PRKD3 = PRKD3 (Homo sapiens, UniProt O94806); assay: Kinase profiling; type: binding; details: read-out: % Ctrl @ 1000 nM
Sequence of PRKD3 (O94806 whole entry): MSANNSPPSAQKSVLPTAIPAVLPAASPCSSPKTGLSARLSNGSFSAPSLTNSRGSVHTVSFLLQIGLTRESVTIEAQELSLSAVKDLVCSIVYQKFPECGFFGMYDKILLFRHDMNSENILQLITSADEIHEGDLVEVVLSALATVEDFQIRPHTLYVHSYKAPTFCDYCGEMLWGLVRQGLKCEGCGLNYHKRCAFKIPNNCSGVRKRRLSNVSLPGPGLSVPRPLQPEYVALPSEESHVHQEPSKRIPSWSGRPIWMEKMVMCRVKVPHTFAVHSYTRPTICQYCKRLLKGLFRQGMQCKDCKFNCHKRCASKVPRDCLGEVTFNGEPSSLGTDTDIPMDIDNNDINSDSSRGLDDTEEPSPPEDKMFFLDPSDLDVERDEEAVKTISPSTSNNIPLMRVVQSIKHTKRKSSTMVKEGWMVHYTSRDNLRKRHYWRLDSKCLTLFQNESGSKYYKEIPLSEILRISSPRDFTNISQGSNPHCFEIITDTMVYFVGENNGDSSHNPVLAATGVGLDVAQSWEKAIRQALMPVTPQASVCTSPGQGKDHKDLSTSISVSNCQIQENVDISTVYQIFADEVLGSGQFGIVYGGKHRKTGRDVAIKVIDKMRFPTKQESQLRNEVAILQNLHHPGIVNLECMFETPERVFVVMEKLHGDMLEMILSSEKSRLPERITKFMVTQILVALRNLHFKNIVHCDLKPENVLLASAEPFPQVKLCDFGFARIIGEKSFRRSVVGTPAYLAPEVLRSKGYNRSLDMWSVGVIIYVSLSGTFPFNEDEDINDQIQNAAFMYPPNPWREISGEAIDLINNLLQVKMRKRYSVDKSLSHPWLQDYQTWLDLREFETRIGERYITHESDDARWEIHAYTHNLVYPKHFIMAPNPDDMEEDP

IKK-epsilon = IKK-epsilon (Homo sapiens, UniProt Q14164); assay: Kinase profiling; type: binding; details: read-out: % Ctrl @ 1000 nM
Sequence of IKK-epsilon (Q14164 whole entry): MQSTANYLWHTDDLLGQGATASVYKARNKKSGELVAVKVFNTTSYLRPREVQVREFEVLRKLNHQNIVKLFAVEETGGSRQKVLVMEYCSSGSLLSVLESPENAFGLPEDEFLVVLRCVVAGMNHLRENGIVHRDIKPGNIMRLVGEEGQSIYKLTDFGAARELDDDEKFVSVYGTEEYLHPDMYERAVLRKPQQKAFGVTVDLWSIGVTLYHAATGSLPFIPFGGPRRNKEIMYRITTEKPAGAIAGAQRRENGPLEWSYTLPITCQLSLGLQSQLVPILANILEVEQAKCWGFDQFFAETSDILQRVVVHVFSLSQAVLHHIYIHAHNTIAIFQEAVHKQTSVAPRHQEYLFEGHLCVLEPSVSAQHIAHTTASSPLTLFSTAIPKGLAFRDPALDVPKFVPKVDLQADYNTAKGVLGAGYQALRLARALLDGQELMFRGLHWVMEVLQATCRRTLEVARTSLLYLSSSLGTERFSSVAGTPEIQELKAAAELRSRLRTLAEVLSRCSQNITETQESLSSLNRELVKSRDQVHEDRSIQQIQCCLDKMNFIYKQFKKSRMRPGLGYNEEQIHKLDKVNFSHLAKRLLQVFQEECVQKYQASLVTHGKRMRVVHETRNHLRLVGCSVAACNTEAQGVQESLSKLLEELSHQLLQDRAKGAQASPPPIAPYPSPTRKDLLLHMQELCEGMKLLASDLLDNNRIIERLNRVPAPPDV

JNK3 = JNK3 (Homo sapiens, UniProt P53779); assay: Kinase profiling; type: binding; details: read-out: % Ctrl @ 1000 nM
Sequence of JNK3 (P53779 whole entry): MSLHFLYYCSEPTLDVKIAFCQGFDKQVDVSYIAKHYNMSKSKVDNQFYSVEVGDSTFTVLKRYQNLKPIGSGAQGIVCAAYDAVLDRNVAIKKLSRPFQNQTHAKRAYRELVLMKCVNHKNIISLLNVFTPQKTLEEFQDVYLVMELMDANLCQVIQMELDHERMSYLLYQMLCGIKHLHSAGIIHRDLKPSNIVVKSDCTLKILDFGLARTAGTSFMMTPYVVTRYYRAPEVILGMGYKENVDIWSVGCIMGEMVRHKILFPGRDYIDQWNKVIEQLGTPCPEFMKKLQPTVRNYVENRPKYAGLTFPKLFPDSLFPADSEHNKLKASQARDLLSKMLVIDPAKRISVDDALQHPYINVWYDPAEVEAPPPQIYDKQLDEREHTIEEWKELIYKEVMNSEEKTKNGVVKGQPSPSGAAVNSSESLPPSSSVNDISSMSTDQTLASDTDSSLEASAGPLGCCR

STK39 = STK39 (Homo sapiens, UniProt Q9UEW8); assay: Kinase profiling; type: binding; details: read-out: % Ctrl @ 1000 nM
DDR2 = DDR2 (Homo sapiens, UniProt Q16832); assay: Kinase profiling; type: binding; details: read-out: % Ctrl @ 1000 nM
ICK = ICK (Homo sapiens, UniProt Q9UPZ9); assay: Kinase profiling; type: binding; details: read-out: % Ctrl @ 1000 nM
RAW264.7 cells = assay: Proliferation of RAW264.7 cells (CTG assay); type: cell-based; details: RAW264.7 (CSF-1 independent, negative control), 3 days
Protocol: Two syngeneic cell lines M-NFS-60 and RAW264.7 and engineered BaF3 hCSFIR cell line were starved and then tested with CBT-102 and other test articles for 3 days in the temperature of 37° C., 5% CO2 and 95% humidity. The cell viability was then detected using CTG assay. The software of GraphPad Prism was used to calculate IC50.
CSF-1 dependent mouse myeloid M-NFS-60 cells were employed as target cells while a CSF-1 independent cell line Raw 264.7 was used as a negative control. In addition to CBT-102, the study also included 3 CSF-1R inhibitors: GW2580, BLZ945 and Pexidartinib.

ACVRL1 = ACVRL1 (Homo sapiens, UniProt P37023); assay: Kinase profiling; type: binding; details: read-out: % Ctrl @ 1000 nM
CDK7 = CDK7 (Homo sapiens, UniProt P50613); assay: Kinase profiling; type: binding; details: read-out: % Ctrl @ 1000 nM
BMPR1A = BMPR1A (Homo sapiens, UniProt P36894); assay: Kinase profiling; type: binding; details: read-out: % Ctrl @ 1000 nM
PFTAIRE2 = PFTAIRE2 (Homo sapiens, UniProt Q96Q40); assay: Kinase profiling; type: binding; details: read-out: % Ctrl @ 1000 nM
PIM1 = PIM1 (Homo sapiens, UniProt P11309); assay: Kinase profiling; type: binding; details: read-out: % Ctrl @ 1000 nM
YSK1 = YSK1 (Homo sapiens, UniProt O00506); assay: Kinase profiling; type: binding; details: read-out: % Ctrl @ 1000 nM
Sequence of YSK1 (O00506 whole entry): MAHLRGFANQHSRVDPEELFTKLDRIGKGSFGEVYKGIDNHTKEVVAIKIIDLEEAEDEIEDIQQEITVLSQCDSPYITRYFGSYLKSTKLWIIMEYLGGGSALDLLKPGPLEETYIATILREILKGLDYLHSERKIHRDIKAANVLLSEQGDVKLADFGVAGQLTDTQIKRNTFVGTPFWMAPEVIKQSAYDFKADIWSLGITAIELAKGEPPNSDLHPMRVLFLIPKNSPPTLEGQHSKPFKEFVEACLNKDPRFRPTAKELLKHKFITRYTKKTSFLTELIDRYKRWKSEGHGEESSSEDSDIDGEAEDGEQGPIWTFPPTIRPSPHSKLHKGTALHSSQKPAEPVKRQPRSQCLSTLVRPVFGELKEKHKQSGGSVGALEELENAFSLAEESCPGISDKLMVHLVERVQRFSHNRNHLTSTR

PKAC-alpha = PKAC-alpha (Homo sapiens, UniProt P17612); assay: Kinase profiling; type: binding; details: read-out: % Ctrl @ 1000 nM
NIM1 = biological target: T3, NIM1 (Homo sapiens, UniProt Q8IY84); assay: Kinase profiling; type: binding; details: read-out: % Ctrl @ 1000 nM
T3 construct: T7 phage fusion (said for most assays); made in house
T3 sequence (Q8IY84 whole entry, the tested form may be a part): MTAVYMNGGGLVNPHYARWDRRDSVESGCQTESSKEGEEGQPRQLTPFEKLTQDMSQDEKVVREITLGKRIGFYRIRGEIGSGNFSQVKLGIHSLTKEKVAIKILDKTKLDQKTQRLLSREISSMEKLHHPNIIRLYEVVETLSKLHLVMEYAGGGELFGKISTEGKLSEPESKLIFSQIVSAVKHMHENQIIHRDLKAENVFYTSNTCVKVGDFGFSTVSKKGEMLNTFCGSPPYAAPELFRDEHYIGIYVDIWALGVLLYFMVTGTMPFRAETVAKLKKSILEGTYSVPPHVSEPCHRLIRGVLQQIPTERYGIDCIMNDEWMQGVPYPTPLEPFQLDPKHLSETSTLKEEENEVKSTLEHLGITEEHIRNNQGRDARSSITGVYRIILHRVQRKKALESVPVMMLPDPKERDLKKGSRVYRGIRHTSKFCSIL

CLK2 = CLK2 (Homo sapiens, UniProt P49760); assay: Kinase profiling; type: binding; details: read-out: % Ctrl @ 1000 nM
PKN2 = PKN2 (Homo sapiens, UniProt Q16513); assay: Kinase profiling; type: binding; details: read-out: % Ctrl @ 1000 nM
p38-delta = p38-delta (Homo sapiens, UniProt O15264); assay: Kinase profiling; type: binding; details: read-out: % Ctrl @ 1000 nM
LATS2 = LATS2 (Homo sapiens, UniProt Q9NRM7); assay: Kinase profiling; type: binding; details: read-out: % Ctrl @ 1000 nM
LATS1 = LATS1 (Homo sapiens, UniProt O95835); assay: Kinase profiling; type: binding; details: read-out: % Ctrl @ 1000 nM
[3] = biological target: RPS6KA5 (Kin.Dom.2-C-terminal) (Homo sapiens, UniProt O75582); assay: Kinase profiling; type: binding; details: read-out: % Ctrl @ 1000 nM
Sequence of RPS6KA5 (Kin.Dom.2-C-terminal) (O75582 426-687 limits assumed): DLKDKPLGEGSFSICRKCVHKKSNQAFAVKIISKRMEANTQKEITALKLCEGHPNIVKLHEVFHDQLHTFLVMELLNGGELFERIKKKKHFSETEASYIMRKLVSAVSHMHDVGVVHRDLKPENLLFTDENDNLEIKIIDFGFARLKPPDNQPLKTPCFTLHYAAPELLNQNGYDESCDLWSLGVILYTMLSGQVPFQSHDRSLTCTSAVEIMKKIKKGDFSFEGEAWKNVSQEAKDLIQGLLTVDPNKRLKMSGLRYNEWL

MAP3K2 = MAP3K2 (Homo sapiens, UniProt Q9Y2U5); assay: Kinase profiling; type: binding; details: read-out: % Ctrl @ 1000 nM
PRKR = PRKR (Homo sapiens, UniProt P19525); assay: Kinase profiling; type: binding; details: read-out: % Ctrl @ 1000 nM
PRKCE = PRKCE (Homo sapiens, UniProt Q02156); assay: Kinase profiling; type: binding; details: read-out: % Ctrl @ 1000 nM
Sequence of PRKCE (Q02156 whole entry): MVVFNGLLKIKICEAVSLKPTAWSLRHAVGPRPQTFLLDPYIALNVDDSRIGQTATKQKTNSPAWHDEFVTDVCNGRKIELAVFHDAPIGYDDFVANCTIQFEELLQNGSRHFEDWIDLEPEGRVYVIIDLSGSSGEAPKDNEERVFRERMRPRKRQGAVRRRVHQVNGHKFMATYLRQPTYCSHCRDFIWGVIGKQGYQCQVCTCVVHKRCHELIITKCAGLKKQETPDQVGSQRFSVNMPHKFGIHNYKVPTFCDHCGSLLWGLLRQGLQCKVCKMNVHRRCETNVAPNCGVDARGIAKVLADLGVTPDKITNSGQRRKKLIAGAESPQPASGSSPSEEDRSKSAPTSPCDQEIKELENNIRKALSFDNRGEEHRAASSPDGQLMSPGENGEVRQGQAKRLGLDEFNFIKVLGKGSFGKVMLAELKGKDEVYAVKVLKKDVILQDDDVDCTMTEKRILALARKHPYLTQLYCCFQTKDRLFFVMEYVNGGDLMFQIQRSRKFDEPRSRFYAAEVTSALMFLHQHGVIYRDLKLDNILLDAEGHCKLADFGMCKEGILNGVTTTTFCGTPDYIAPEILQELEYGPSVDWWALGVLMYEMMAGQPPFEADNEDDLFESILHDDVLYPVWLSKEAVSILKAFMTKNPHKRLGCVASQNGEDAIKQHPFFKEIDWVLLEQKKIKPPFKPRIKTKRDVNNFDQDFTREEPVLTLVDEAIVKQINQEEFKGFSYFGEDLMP

DYRK2 = DYRK2 (Homo sapiens, UniProt Q92630); assay: Kinase profiling; type: binding; details: read-out: % Ctrl @ 1000 nM

Sequence of JNK1 (P45983 whole entry): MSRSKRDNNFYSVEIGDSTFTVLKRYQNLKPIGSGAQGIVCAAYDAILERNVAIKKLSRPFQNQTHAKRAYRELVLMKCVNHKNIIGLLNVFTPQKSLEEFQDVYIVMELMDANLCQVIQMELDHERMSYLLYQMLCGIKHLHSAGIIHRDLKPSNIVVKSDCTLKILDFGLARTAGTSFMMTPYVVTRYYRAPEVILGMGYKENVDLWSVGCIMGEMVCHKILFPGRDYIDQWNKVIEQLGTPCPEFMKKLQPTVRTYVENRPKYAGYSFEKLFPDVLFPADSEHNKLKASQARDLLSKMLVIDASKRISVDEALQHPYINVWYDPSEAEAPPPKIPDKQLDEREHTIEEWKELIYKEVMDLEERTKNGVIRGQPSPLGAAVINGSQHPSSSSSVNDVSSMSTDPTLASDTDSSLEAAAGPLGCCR

Cc1cc(Oc2cc(NC(=O)C3CC3)ncn2)ccc1NC(=O)Nc1ccc(Cl)c(C(F)(F)F)c1 [CBT-102]
remaining activity at 1 µM (JNK1): 90% | remaining activity at 1 µM (PRKCD): 100% | remaining activity at 1 µM [1]: 100% | remaining activity at 1 µM (PIP5K1A): 100% | remaining activity at 1 µM (EGFR (S752-I759del)): 91% | remaining activity at 1 µM (LOK): 0.1% | remaining activity at 1 µM (MAST1): 86% | remaining activity at 1 µM [2]: 82% | remaining activity at 1 µM (MST1): 100% | remaining activity at 1 µM (EPHB6): 14% | remaining activity at 1 µM (PRKD3): 91% | remaining activity at 1 µM (IKK-epsilon): 100% | remaining activity at 1 µM (JNK3): 85% | remaining activity at 1 µM (STK39): 100% | remaining activity at 1 µM (DDR2): 1.1% | remaining activity at 1 µM (ICK): 100% | IC50 (RAW264.7 cells; Mus musculus, 72 h): 22.9 µM | Max inh. (RAW264.7 cells): 95.44% | remaining activity at 1 µM (ACVRL1): 67% | remaining activity at 1 µM (CDK7): 25% | remaining activity at 1 µM (BMPR1A): 54% | remaining activity at 1 µM (PFTAIRE2): 60% | remaining activity at 1 µM (PIM1): 95% | remaining activity at 1 µM (YSK1): 100% | remaining activity at 1 µM (PKAC-alpha): 97% | remaining activity at 1 µM (NIM1): 82% | remaining activity at 1 µM (CLK2): 100% | remaining activity at 1 µM (PKN2): 100% | remaining activity at 1 µM (p38-delta): 8.6% | remaining activity at 1 µM (LATS2): 100% | remaining activity at 1 µM (LATS1): 80% | remaining activity at 1 µM [3]: 100% | remaining activity at 1 µM (MAP3K2): 90% | remaining activity at 1 µM (PRKR): 92% | remaining activity at 1 µM (PRKCE): 99% | remaining activity at 1 µM (DYRK2): 89%
